Where two headings read alike, the source gives them in different places.
Columns and labels:
[1] = system: Herpes Simplex Virus (HSV 1); experiment: HSV 1 plaque reduction assay in Vero cell monolayers; type: cell-based; settings: read-out: 50% inhibitory concentration (IC50)
Procedure: Herpes Simplex Virus (HSV 1) was assayed in monolayers of Vero cells in multiwell trays. Activity of compounds was determined in the plaque reduction assay, in which a cell monolayer was infected with a suspension of HSV 1, and then overlaid with nutrient agarose in the form of a gel to ensure that there was no spread of virus throughout the culture. A range of concentrations of compound of known molarity was incorporated in the nutrient agarose overlay. Plaque numbers at each concentration are expressed as percentages of the control and a dose-response curve was drawn. From this curve the 50% inhibitory concentration (IC50) was estimated.

[2] = background statement; cited from earlier work
[3] = cited from earlier work
herpes viruses = settings: cited from earlier work
[4] = Oral bioavailability in rats: urinary recovery as acyclovir after oral administration (gavage); type: in vivo, Long Evans Rates (rats)
Procedure: Long Evans Rates are administered the compound to be tested by gavage at a dose equivalent to 25 mg/kg acyclovir. The urine is collected for 24 and 48 hours post-dose, ultrafiltered, and analysed by reverse-phase high-pressure liquid chromatography. The oral bioavailability of the compound is expressed as the percent of the dose excreted in the urine as acyclovir.

[5] = Plasma levels of acyclovir after oral administration in animals; type: in vivo

| IC50 ([1]; HSV 1, Vero cells, plaque reduction) [nM] | bioavailability compared with acyclovir or the esters disclosed in UK 1523865 and 1561380 ([4]; oral) | Urinary Recovery (% of dose) as acyclovir ([4]; rats, gavage, dose equivalent to 25 mg/kg acyclovir, urine 24 and 48 hours post-dose) | SMILES | IC50 ([1]; Vero) [nM] | absorption from the gastrointestinal tract after oral administration [2] | solubility in water [3] | antiviral activity, particularly against herpes viruses (herpes viruses) | levels of acyclovir in the plasma [5] |
| --- | --- | --- | --- | --- | --- | --- | --- | --- |
|  |  |  | Nc1nc2c(ncn2COCCO)c(=O)[nH]1 [Acyclovir, 9-(2-Hydroxyethoxymethyl)guanine] | ~100 | only poorly absorbed | poorly soluble | potent antiviral activity |  |
| 200 | improved bioavailability | 34 % of dose | CCCCC(=O)OCCOCn1cnc2c(=O)[nH]c(N)nc21 [Example A, 9-(2-valeryloxyethoxymethyl)guanine] |  |  |  |  | measurable levels of acyclovir in the plasma |

Source: patent US5079252A, “Therapeutic compounds” (priority 1988, dated 1992)
